Test results published in PMC8199036, “Improved Tumor-Targeting with Peptidomimetic Analogs of Minigastrin ^177Lu-PP-F11N” (Cancers, 2021).
Starred links: 1 amine or outer side, 2 acyl side, 3 side chain; linkers in the order of their positions; H or OH if unused. Non-standard residues stand in square brackets, D forms with d. Residues, ends and D or L forms follow the SMILES beside them. *: point of attachment. DOTA = O=C(O)CN1CCN(CC(=O)O)CCN(CC(=O)*)CCN(CC(=O)O)CC1; X1 = C[C@@H](C(=O)[*:2])n1cc([C@@H](CCC(=O)O)N[*:1])nn1; X2 = O=C(Cn1cc([C@H](Cc2ccc(O)cc2)N[*:1])nn1)[*:2]; Nle = CCCC[C@H](N)C(=O)O

Test system: A431-CCK2R cells
Test: cell binding and internalization
Type: cell-based
Conditions: for internalized blocked / membrane-bound blocked: 6000-fold excess of minigastrin; for internalized specific / membrane-bound specific: total minus blocked
Description: Procedures for (radio)metal labeling of the DOTA–minigastrin conjugates with ^177Lu^3+ and ^natLu^3+, cell culturing of A431-CCK2R cells, cell internalization (including blocking experiments with excess minigastrin (H-LE5AYGWMDF-NH2)), competition binding assays (IC50), stability measurements in human blood plasma, and determinations of logDpH 7.4 have been reported previously for the in vitro evaluation of TZMGs and were applied to NMGs without alteration.
Figure 2 (A) Total internalization of ^177Lu-labeled conjugates (2 nM, 5 kBq) in […] cells over 4 h (n = 3–4 in triplicate). […] Data points show mean value ± standard deviation.
Cell Internalization Data
Cell internalization was determined and analyzed as described in Grob, et al., J Med Chem, 2020.1 Specific values result from values of total internalization or cell binding minus values obtained in presence of a 6000-fold excess of minigas- […]
Incubation time membrane-bound internalized total blocked specific total blocked specific
Table S3: Complete Internalization Data for 177Lu-labeled NMG 1 as mean ± standard deviation from n = 3–4 in triplicates.
Table S4: Complete Internalization Data for 177Lu-labeled NMG 2 as mean ± standard deviation from n = 3–4 in triplicates.
Table S5: Complete Internalization Data for 177Lu-labeled NMG 3 as mean ± standard deviation from n = 3–4 in triplicates.

SMILES: CCCC[C@H](NC(=O)[C@H](Cc1c[nH]c2ccccc12)NC(=O)Cn1cc([C@H](Cc2ccc(O)cc2)NC(=O)[C@H](C)n2cc([C@@H](CCC(=O)O)NC(=O)[C@@H](CCC(=O)O)NC(=O)[C@@H](CCC(=O)O)NC(=O)[C@@H](CCC(=O)O)NC(=O)[C@@H](CCC(=O)O)NC(=O)[C@@H](CCC(=O)O)NC(=O)CN3CCN(CC(=O)O)CCN(CC(=O)O)CCN(CC(=O)O)CC3)nn2)nn1)C(=O)N[C@@H](CC(=O)O)C(=O)N[C@@H](Cc1ccccc1)C(N)=O [NMG 3, DOTA-(DGlu)6 -Ψ[Tz]-Ala-Tyr-Ψ[Tz]-Gly-Trp-Nle-Asp-Phe-NH2] ({DOTA}-[dE][dE][dE][dE][dE][X1][X2]W[Nle]DF-NH2)
- internalized total (0.5 h): 33.9 ± 1.1%
- membrane-bound total (0.5 h): 7.7 ± 0.8%
- internalized blocked (0.5 h): 0.4 ± 0.3%
- membrane-bound blocked (0.5 h): 0.9 ± 0.3%
- internalized specific (0.5 h): 33.5 ± 1.1%
- membrane-bound specific (0.5 h): 6.8 ± 1.0%
- internalized total (1 h): 57.2 ± 2.3%
- membrane-bound total (1 h): 6.4 ± 0.3%
- internalized blocked (1 h): 0.7 ± 0.3%
- membrane-bound blocked (1 h): 0.9 ± 0.3%
- internalized specific (1 h): 56.5 ± 2.1%
- membrane-bound specific (1 h): 5.5 ± 0.4%
- internalized total (2 h): 73.4 ± 1.3%
- membrane-bound total (2 h): 4.0 ± 0.6%
- internalized blocked (2 h): 5.5 ± 3.9%
- membrane-bound blocked (2 h): 1.8 ± 1.3%
- internalized specific (2 h): 67.9 ± 3.4%
- membrane-bound specific (2 h): 2.2 ± 1.3%
- membrane-bound total (4 h): 3.2 ± 0.3%
- internalized blocked (4 h): 18.4 ± 4.3%
- membrane-bound blocked (4 h): 2.4 ± 0.6%
- internalized specific (4 h): 57.7 ± 4.2%
- membrane-bound specific (4 h): 0.8 ± 0.6%
- cell-associated radioactivity (after 4 h of incubation): ~80%
